Here are results for nine compounds from ChEMBL document CHEMBL1201862, “PubChem BioAssay data set” (2004).

Calls of active or inactive are those of the source.

Targets include Cytochrome P450 2C9 (Homo sapiens, UniProt P11712); Cytochrome P450 3A4 (Homo sapiens, UniProt P08684); Cytochrome P450 2D6 (Homo sapiens, UniProt P10635).
In the next data set the target is T1, Phosphomannomutase 2 (Homo sapiens, UniProt O15305).
T1 sequence (O15305 whole entry): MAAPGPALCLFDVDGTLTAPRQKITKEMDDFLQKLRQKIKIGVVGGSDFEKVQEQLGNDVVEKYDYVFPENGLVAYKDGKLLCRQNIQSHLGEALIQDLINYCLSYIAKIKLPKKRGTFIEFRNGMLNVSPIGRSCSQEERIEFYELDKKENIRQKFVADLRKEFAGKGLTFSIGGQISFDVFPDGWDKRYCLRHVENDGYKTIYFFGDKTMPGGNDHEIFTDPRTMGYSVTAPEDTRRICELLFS
Briefly: Counter screen SAR assay for PMM2 inhibitors via a fluorescence intensity assay. [Related pubchem assays (depositor defined):AID1545, AID1574].

For data set [1], the target named is T2, Mannose-6-phosphate isomerase (Homo sapiens, UniProt P34949).
T2 sequence (P34949 whole entry): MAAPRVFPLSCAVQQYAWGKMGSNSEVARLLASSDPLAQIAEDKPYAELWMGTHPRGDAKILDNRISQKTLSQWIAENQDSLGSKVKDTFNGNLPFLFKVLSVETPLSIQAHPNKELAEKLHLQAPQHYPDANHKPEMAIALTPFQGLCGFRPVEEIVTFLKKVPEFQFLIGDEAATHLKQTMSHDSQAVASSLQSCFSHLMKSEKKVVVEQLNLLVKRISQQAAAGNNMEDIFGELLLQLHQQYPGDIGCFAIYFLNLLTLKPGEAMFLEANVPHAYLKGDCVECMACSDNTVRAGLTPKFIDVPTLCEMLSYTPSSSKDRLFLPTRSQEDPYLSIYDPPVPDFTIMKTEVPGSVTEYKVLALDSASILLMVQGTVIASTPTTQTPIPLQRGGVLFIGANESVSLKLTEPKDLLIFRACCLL
Briefly: PMI enzyme inhibitors, confirmation, biochemical, fluorescence intensity (AID 1535).

The target of data set [2] is Glucose-6-phosphate 1-dehydrogenase (Homo sapiens, UniProt P11413). Put plainly: human G6PD enzyme inhibitors, dose response, selectivity assay for P. falciparum G6PD inhibitor project, biochemical, fluorescence (AID 504792). Format: functional.
Data set [3] is described as follows: HepG2 cell cytotoxicity, dose response, cytotoxicity control for Shn3 inhibitor project, CellTiter-Glo, cherry-picked (AID 624134). Format: functional, cell-based.
The nature of data set [4]: HEp-2 cell cytotoxicity, dose response, cytotoxicity control for RSV inhibitor project, HTS (AID 2410). Conditions: human respiratory syncytial virus. Type of data set: functional.
The subject of data set [5] is HEK293. Put plainly: cells. Conditions: Homo sapiens.
The target in data set [6] is T3, Voltage-gated N-type calcium channel alpha-1B subunit/Amyloid beta A4 precursor protein-binding family A member 1 (Homo sapiens, UniProt Q00975+Q02410). Format: protein assay.
T3 sequence (Q00975 whole entry): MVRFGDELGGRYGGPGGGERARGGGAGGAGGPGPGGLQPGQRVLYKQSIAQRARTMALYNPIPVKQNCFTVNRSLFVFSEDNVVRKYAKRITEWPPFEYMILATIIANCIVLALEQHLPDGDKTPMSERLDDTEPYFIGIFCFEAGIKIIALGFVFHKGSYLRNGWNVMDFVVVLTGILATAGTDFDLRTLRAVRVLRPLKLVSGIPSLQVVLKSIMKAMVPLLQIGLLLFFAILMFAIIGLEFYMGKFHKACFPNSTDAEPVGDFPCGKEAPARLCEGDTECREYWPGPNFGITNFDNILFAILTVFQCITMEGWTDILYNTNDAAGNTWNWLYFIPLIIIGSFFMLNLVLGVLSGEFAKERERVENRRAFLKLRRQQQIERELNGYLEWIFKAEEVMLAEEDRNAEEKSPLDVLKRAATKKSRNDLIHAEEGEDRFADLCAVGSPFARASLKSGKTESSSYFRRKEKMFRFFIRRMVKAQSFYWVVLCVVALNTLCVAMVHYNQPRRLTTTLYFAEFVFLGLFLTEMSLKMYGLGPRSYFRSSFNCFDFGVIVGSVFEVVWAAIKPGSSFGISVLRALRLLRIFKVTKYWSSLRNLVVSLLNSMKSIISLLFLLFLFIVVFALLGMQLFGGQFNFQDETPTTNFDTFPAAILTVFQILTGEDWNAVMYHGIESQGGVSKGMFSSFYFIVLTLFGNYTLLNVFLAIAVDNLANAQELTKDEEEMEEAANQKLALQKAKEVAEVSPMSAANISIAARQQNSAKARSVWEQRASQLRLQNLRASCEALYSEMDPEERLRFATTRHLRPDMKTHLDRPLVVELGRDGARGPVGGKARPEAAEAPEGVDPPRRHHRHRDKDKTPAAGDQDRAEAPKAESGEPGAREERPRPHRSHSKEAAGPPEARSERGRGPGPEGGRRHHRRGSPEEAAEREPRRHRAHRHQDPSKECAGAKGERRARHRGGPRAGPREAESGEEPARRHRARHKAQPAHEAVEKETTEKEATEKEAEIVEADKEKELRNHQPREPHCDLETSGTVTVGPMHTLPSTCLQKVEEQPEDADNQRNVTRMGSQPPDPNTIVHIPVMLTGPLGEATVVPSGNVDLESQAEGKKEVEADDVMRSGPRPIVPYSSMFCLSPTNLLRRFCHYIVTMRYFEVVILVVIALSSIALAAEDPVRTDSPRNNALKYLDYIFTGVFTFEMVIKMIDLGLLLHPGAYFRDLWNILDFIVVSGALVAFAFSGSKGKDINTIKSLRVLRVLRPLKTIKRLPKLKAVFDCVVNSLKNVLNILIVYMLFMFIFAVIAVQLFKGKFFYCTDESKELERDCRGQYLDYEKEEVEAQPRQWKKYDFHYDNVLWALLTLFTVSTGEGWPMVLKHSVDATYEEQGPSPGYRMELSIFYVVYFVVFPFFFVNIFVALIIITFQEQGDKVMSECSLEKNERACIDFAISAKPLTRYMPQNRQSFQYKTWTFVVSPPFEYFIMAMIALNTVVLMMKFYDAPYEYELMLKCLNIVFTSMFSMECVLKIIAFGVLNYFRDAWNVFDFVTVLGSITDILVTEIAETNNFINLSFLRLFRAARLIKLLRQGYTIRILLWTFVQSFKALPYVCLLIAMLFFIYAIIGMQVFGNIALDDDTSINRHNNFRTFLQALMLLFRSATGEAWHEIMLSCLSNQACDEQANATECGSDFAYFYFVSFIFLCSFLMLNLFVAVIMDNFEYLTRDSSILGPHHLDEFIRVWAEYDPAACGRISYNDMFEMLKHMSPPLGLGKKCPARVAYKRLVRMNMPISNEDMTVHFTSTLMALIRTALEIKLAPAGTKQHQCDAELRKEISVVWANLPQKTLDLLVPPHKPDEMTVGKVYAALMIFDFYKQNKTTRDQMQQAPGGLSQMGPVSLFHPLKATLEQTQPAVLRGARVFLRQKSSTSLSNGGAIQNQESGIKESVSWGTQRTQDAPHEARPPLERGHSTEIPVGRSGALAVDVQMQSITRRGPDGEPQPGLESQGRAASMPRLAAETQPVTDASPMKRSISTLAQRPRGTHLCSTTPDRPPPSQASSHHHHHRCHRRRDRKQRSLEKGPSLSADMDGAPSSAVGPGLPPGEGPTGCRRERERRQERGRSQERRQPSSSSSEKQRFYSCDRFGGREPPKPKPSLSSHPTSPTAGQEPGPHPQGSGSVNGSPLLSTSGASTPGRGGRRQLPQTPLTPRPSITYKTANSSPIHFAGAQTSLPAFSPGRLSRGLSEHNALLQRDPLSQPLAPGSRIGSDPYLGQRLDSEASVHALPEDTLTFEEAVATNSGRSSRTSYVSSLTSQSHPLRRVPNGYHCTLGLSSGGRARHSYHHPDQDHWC
T3 sequence (Q02410 whole entry): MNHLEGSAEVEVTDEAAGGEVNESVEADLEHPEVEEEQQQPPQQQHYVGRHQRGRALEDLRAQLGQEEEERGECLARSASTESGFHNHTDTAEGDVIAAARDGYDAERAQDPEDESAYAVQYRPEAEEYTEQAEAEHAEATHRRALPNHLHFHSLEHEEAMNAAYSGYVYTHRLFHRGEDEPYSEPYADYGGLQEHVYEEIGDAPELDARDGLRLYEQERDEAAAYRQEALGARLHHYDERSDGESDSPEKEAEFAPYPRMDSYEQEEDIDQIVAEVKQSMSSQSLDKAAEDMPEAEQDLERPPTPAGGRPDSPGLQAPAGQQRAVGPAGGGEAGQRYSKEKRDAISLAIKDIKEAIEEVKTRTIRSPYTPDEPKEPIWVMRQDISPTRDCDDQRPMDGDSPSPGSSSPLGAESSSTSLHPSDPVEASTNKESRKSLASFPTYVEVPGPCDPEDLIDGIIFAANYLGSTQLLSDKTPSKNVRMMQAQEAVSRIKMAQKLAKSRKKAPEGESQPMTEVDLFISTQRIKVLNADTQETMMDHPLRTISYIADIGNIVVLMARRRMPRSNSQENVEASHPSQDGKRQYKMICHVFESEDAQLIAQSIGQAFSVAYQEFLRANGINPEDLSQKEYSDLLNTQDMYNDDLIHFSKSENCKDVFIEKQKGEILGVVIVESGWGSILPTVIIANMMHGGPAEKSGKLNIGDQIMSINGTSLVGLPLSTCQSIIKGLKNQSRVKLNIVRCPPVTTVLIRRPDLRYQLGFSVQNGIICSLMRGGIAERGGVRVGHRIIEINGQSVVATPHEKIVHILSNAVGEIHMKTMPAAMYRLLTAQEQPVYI
Data set [7] in a line: growth suppression of beta-catenin-knockout colon cells, dose response, cell-based, HCT116, human colon tumor (AID 1045).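 Further: HCT116 colon tumor cells with beta catenin knocked out; cells exposed to compound for 60 hours.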 Format: functional.
Data set [8] has as its system HEK293. Briefly: cells. Conditions: Homo sapiens. The source holds these as a separate data set.
The target in data set [9] is Luciferin 4-monooxygenase (Photinus pyralis, UniProt P08659). Briefly: firefly luciferase enzyme inhibitors, dose response, biochemical, luminescence (AID 1891).
A short description of data set [10]: control 3'UTR Renilla luciferase suppression, dose response, counter-screen for Shn3 inhibitor project, cell-based, Clone20-Shn3RL, cherry-picked (AID 624133). Type of data set: functional.
Data set [11] is described as follows: growth suppression of PTEN-null colon cells, dose response, cell-based, HCT116 PTEN knockout (AID 1047).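 Further: HCT116 colon tumor cells with PTEN knocked out; cells exposed to compound for 60 hours before readout; potency for loss of cell viability measured by luminescence.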 Format: functional.
Data set [12] can be described thus: Shn3 3'UTR reporter inhibitors, dose response, cell-based, Clone20 osteoblasts, firefly luciferase, cherry-picked (AID 624132).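 Further: firefly luciferase luminescence from reporter carrying the Shn3 3'UTR in osteoblasts.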 Format: functional.
A short description of data set [13]: Luminescence Cell-Based Dose Confirmation HTS to Identify Inhibitors of Platelet Dense Granule Release. [Related pubchem assays: 1663 (Primary HTS), 1678 (Summary of Project)]. Type of data set: functional.
Data set [14] has as its target Heat shock protein HSP 90-alpha (Homo sapiens, UniProt P07900). Type of data set: functional, organism-based.
Data set [15] addresses T3, Voltage-gated N-type calcium channel alpha-1B subunit/Amyloid beta A4 precursor protein-binding family A member 1. Type of data set: protein assay. The source holds these as a separate data set.
The next data set deals with T4, Cytochrome P450 1A2 (Homo sapiens, UniProt P05177).
T4 sequence (P05177 whole entry): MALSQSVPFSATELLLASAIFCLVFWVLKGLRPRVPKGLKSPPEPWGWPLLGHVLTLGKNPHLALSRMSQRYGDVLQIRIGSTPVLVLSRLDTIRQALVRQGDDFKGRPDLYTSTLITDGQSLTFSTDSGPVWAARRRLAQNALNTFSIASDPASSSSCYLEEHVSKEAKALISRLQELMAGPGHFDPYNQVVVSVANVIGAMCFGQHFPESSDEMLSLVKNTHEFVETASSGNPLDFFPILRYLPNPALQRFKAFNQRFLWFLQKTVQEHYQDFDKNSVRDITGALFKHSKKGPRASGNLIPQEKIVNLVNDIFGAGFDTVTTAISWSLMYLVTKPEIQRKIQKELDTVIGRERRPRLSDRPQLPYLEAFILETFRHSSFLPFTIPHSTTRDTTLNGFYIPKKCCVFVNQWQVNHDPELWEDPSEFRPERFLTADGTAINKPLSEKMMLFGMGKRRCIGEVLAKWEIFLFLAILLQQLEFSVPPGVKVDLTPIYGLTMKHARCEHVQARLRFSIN

Another data set deals with Cytochrome P450 2C19 (Homo sapiens, UniProt P33261). Briefly: Cytochrome panel assay with activity outcomes. Panel member name: p450-cyp2c19 Compounds with AC50 equal or less than 10 uM are considered active. Format: functional. Conditions: read-out: AC50.
Data set [16] in a line: Luminescence Cell-Based Dose Response HTS to Identify Activators of Luciferase Translation or Activity in H4 […] Cells. [Related pubchem assays: 1829 (Project Summary), 1814 (Primary HTS)]. Format: functional.
Data set [17] has as its system Vero. Briefly: cells. Format: functional, cell-based. The following applies: Chlorocebus sabaeus.
For data set [18], the system named is Vero. Put plainly: cells. Format: functional. Conditions: Chlorocebus sabaeus.
The test system of another data set is H4. Put plainly: Luminescence Cell-Based Dose Response HTS to Identify Activators of 5'UTR Stem-Loop Driven Prion Protein mRNA Translation in H4 Neuroglioblastoma Cells. [Related pubchem assays: 1829 (Project Summary), 1814 (Primary HTS)]. Conditions: Homo sapiens. Format: functional.
Data set [19] is described as follows: Luminescence Cell-Based Dose Confirmation HTS to Identify Activators of 5'UTR Stem-Loop Driven Alpha-Synuclein mRNA Translation in H4 Neuroglioblastoma Cells. [Related pubchem assays: 1829 (Project Summary), 1814 (Primary HTS)]. Format: functional.
Data set [20] relates to BJ. Put plainly: cytotoxicity toward BJ-TERT-LT-ST fibroblasts, dose response, cell-based, RAS-independent, luminescence (AID 1935).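 Further: BJ fibroblasts immortalized with TERT plus LT and ST oncogenes.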 Format: functional. Conditions: Homo sapiens.
The nature of data set [21]: cytotoxicity toward DRD oncogenic fibroblasts, dose response, cell-based, non-viral oncogenic, luminescence (AID 1934). Format: functional. The following applies: Homo sapiens.
Data set [22] relates to BJ. Put plainly: cells. Format: functional, cell-based. Conditions: Homo sapiens.
Data set [23] in a line: inhibitors of firefly luciferase expression or activity, dose response, H4 neuroglioma cells, luminescence (AID 1990). Type of data set: functional, cell-based.
The test system of data set [24] is BJ. Briefly: cytotoxicity toward BJ-TERT fibroblasts, dose response, cell-based, RAS-independent, luminescence (AID 1933). Format: functional. The following applies: Homo sapiens.
Data set [25] is described as follows: Luminescence Cell-Based Dose Response HTS to Identify Inhibitors of 5'UTR Stem-Loop Driven Prion Protein mRNA Translation in H4 Neuroglioblastoma Cells. [Related pubchem assays: 1827 (Project Summary), 1813 (Primary HTS)]. Format: functional.
In data set [26] the target is T5, Short transient receptor potential channel 4 (Mus musculus, UniProt Q9QUQ5).
T5 sequence (Q9QUQ5 whole entry): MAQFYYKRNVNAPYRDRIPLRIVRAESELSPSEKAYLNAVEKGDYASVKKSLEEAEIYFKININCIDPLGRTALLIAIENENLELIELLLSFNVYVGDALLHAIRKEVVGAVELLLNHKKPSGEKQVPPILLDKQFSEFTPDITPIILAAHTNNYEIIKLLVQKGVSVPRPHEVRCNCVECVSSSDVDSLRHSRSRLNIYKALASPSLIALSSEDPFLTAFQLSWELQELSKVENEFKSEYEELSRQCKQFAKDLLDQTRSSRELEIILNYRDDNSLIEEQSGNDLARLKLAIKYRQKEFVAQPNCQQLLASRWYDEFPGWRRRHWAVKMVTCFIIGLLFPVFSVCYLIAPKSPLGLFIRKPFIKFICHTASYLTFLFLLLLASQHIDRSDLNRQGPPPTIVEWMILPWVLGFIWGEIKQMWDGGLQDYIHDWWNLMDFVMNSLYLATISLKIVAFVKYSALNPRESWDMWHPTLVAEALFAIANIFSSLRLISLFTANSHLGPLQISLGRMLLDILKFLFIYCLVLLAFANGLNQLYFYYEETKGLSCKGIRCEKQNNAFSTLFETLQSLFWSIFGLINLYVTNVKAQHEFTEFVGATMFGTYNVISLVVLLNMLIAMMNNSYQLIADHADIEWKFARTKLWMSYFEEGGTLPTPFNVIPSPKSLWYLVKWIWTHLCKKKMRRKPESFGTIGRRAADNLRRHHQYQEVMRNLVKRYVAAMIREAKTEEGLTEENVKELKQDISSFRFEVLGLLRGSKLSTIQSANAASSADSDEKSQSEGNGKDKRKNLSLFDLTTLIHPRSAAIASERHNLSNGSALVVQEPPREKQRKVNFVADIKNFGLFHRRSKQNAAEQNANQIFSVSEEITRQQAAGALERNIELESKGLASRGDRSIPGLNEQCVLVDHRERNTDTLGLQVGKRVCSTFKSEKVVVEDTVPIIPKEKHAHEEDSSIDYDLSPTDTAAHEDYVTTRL
Briefly: mouse TRPC4 channel inhibitors, dose response, cell-based, HEK293 TRPC4/mu-opioid, Fluo-4 calcium (AID 434942).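 Further: potency of inhibitors blocking the TRPC4 calcium response.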 Type of data set: functional.

Cytochrome P450 2C9, sequence (P11712 whole entry): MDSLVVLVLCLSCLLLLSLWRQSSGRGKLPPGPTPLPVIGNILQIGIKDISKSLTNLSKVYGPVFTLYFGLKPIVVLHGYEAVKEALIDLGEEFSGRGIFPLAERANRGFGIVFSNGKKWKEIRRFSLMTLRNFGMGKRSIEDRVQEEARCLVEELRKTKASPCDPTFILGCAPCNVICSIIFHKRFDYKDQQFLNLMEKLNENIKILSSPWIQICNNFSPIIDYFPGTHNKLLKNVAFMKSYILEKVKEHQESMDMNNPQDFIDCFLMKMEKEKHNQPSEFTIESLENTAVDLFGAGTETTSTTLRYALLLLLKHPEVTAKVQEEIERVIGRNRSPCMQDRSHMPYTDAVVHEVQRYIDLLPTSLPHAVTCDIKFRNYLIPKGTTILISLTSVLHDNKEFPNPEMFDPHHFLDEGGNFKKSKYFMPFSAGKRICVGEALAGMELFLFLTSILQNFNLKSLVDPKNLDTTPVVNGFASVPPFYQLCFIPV
Cytochrome P450 3A4, sequence (P08684 whole entry): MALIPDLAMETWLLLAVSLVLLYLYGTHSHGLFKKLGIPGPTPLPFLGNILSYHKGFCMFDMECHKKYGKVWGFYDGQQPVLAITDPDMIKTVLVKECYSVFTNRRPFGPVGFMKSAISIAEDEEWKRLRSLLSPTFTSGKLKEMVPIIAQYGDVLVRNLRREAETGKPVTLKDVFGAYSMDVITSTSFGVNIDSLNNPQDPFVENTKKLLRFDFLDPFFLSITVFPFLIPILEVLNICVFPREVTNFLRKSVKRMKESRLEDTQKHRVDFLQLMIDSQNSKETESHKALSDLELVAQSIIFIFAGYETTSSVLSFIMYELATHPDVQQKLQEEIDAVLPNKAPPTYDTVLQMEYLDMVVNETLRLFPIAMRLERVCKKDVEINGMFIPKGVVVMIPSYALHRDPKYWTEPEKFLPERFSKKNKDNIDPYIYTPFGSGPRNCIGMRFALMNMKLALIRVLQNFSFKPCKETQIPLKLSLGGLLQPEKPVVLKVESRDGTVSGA
Cytochrome P450 2D6, sequence (P10635 whole entry): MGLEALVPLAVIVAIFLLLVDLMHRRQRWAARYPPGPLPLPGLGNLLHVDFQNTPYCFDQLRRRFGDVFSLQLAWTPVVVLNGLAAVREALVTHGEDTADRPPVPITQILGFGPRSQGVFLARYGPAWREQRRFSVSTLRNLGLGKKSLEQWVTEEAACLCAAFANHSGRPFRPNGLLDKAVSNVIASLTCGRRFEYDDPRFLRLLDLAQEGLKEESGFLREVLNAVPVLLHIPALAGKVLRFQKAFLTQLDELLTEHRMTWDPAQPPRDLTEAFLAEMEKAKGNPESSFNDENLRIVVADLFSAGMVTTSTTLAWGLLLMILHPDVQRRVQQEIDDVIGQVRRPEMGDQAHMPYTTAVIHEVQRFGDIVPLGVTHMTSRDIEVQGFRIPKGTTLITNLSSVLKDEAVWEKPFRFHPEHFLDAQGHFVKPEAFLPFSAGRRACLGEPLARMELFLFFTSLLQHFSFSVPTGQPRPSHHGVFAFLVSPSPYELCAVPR

As to `Cc1cc2cc(CNC(=O)CC(C)C)ccc2n1C`, the half-maximal activity concentration (AC50) entry on Cytochrome P450 2C9 was “inconclusive”; at Cytochrome P450 3A4, 15.8 µM (inconclusive).
`COc1ccc(OC)c(S(=O)(=O)N2CCC(C(=O)NCCc3ccccc3)CC2)c1`: the AC50 at Cytochrome P450 2D6 was 2.24 µM (inconclusive); on Cytochrome P450 2C9, “inconclusive”; on Cytochrome P450 3A4, 39.8 µM (inconclusive).
Regarding `Cc1cc2n(n1)SC(Nc1cccc3ccccc13)N2` (stereo not given), the IC50 was > 100 µM (inactive) on Phosphomannomutase 2 and > 50 µM (inactive) in data set [1].
In the case of `CCc1nnc(NC(=O)c2ccc(Cl)nc2)s1`, the IC50 in [2] is > 80 µM (inactive).
In the case of `Cc1ccc(NN2C(=O)C=C(c3ccc(Cl)cc3)C2=O)cc1`, the AC50 was 19.8 µM (active) in data set [3], 12.6 µM (active) in [10], 6.53 µM (active) in [12] and < 0.195 µM (active) in [14]. Moreover, the CC50 in data set [4] is 10.8 µM (active). Besides, the EC50 in the data set with HEK293 [5] was > 59.6 µM (inactive); in [7], 24.1 µM (active); in the data set with HEK293 [8], > 59.6 µM (inactive); in data set [9] it was > 112 µM (not active); in data set [11] it was 19.9 µM (active); in data set [13], 9.18 µM (active). The IC50 is 11 µM (active) in data set [6] and > 50 µM (inactive) in data set [15].
As for `COC(=O)c1ccccc1NC(=O)C(CCS(C)(=O)=O)NC(C)=O` (stereo not given), the AC50 at Cytochrome P450 1A2 is 20 µM (inconclusive); at Cytochrome P450 2C9, “inconclusive”; at Cytochrome P450 2C19 it was 39.8 µM (inconclusive).
`O=C(c1ccc(Cl)cc1)C(CN1CCCC1)c1ccccc1` (stereo not given): the EC50 (in data set [16]; in the data set on H4; in data set [19]) was > 120 µM (not active) each time. In addition, in the data set on Vero [17], the IC50 is > 25 µM (active). The CC50 with Vero [18] is 23 µM (active).
For `CC(C)c1ccc(NC(=O)[C@H](Cc2c[nH]c3ccccc23)NC(=O)[C@@H]2Cc3ccccc3CN2)cc1`, in the data set on Vero [17], the IC50 was 5.06 µM (active). Besides, the EC50 with BJ [20] is > 150 µM (not active); in [21] it was 119 µM (active); in the data set with BJ [22], 70.9 µM (active); in [23], > 120 µM (not active); in the data set with BJ [24], > 150 µM (not active); in data set [25], 20.1 µM (active). In the data set on Vero [18], the CC50 is 23.5 µM (active).
As for `COCCn1c(SCC(=O)Nc2ccccc2OC)nc2c3ccccc3nc-2c1O`, the EC50 was > 59.6 µM (inactive) in the data set with HEK293 [5], > 59.6 µM (inactive) with HEK293 [8] and 3.76 µM (active) in [26].
